Source: patent publication US10450270B2, “Glyoxamide substituted pyrrolamide derivatives and the use thereof as medicaments for the treatment of hepatitis B” (Janssen Sciences Ireland UC, priority 2013, dated 2019)

Key:
HBV = assay: Anti-HBV activity, HepG2.117 inducible HBV producing cell line (Tet-off), intracellular HBV DNA by realtime PCR; assay type: cell-based; details: Hepatitis B virus, 72 h; HepG2.117 cells, 3 days of treatment, intracellular HBV DNA; read-out: HepG2 117 EC50
[1] = Cytotoxicity in HepG2 cells, Resazurin viability assay; details: human, HepG2 cells

SMILES	EC50 (HBV) [nM]	CC50 at 4 days [1] [nM]
COCC(C)(C)NC(=O)C(=O)c1cc(C(=O)Nc2ccc(F)c(C#N)c2)n(C)c1C [Compound 79, N-(3-cyano-4-fluoro-phenyl)-4-[2-[(2-methoxy-1,1-dimethyl-ethyl)amino]-2-oxo-acetyl]-1,5-dimethyl-pyrrole-2-carboxamide]	8	> 25000
Cn1cc(C(=O)C(=O)NC(C)(C)C)c(F)c1C(=O)Nc1ccc(F)c(C#N)c1 [Compound 34, 4-[2-(tert-butylamino)-2-oxo-acetyl]-N-(3-cyano-4-fluoro-phenyl)-3-fluoro-1-methyl-pyrrole-2-carboxamide]	9	> 25000
Cn1cc(C(=O)C(=O)NC2(C)CC(F)(F)C2)c(Cl)c1C(=O)Nc1ccc(F)c(C#N)c1 [Compound 40, 3-chloro-N-(3-cyano-4-fluoro-phenyl)-4-[2-[(3,3-difluoro-1-methyl-cyclobutyl)amino]-2-oxo-acetyl]-1-methyl-pyrrole-2-carboxamide]	7	> 25000
Cc1c(C(=O)C(=O)NC2(C(F)(F)F)CCC(O)CC2)cc(C(=O)Nc2ccc(F)c(C#N)c2)n1C (stereo not shown) [Compound 82, N-(3-cyano-4-fluoro-phenyl)-4-[2-[[4-hydroxy-1-(trifluoromethyl)cyclo-hexyl]amino]-2-oxo-acetyl]-1,5-dimethyl-pyrrole-2-carboxamide]	3	> 25000
C[C@@H](NC(=O)C(=O)c1cc(C(=O)Nc2ccc(F)c(C#N)c2)n(C)c1C1CC1)C(F)(F)F [Compound 61, N-(3-cyano-4-fluoro-phenyl)-5-cyclopropyl-1-methyl-4-[2-oxo-2-[[(1R)-2,2,2-trifluoro-1-methyl-ethyl]amino]acetyl]pyrrole-2-carboxamide]	120	> 25000
Cc1c(C(=O)C(=O)N[C@H](CO)C(C)C)cc(C(=O)Nc2ccc(F)c(C#N)c2)n1C [Compound 68, N-(3-cyano-4-fluoro-phenyl)-4-[2-[[(1S)-1-(hydroxymethyl)-2-methyl-propyl]amino]-2-oxo-acetyl]-1,5-dimethyl-pyrrole-2-carboxamide]	78	> 25000
Cn1c(Br)c(C(=O)C(=O)NC(C)(C)C)c(Cl)c1C(=O)Nc1ccc(F)c(C#N)c1 [Compound 50, 5-bromo-4-[2-(tert-butylamino)-2-oxo-acetyl]-3-chloro-N-(3-cyano-4-fluoro-phenyl)-1-methyl-pyrrole-2-carboxamide]	4	> 25000
Cc1c(C(=O)C(=O)N[C@@H](C)C(C)(F)F)cc(C(=O)Nc2ccc(F)c(C#N)c2)n1C [Compound 55, N-(3-cyano-4-fluoro-phenyl)-4-[2-[[(1S)-2,2-difluoro-1-methyl-propyl]-amino]-2-oxo-acetyl]-1,5-dimethyl-pyrrole-2-carboxamide]	9	> 25000
Cc1c(C(=O)C(=O)NC2(C)CCCOC2)cc(C(=O)Nc2ccc(F)c(C#N)c2)n1C (stereo not shown) [Compound 78, N-(3-cyano-4-fluoro-phenyl)-1,5-dimethyl-4-[2-[(3-methyltetrahydropyran-3-yl)amino]-2-oxo-acetyl]pyrrole-2-carboxamide]	8	> 25000
C[C@@H](NC(=O)C(=O)c1cn(C)c(C(=O)Nc2ccc(F)c(C#N)c2)c1F)C(C)(F)F [Compound 93, N-(3-cyano-4-fluoro-phenyl)-4-[2-[[(1R)-2,2-difluoro-1-methylpropyl]-amino]-2-oxo-acetyl]-3-fluoro-1-methyl-pyrrole-2-carboxamide]	15	> 25000
Cc1c(C(=O)C(=O)NC(C)(C)CCO)cc(C(=O)Nc2ccc(F)c(C#N)c2)n1C [Compound 81, N-(3-cyano-4-fluoro-phenyl)-4-[2-[(3-hydroxy-1,1-dimethyl-propyl)amino]-2-oxo-acetyl]-1,5-dimethyl-pyrrole-2-carboxamide]	12	> 25000
C[C@H](CO)NC(=O)C(=O)c1cn(C)c(C(=O)Nc2ccc(F)c(C#N)c2)c1F [Compound 95, N-(3-cyano-4-fluoro-phenyl)-3-fluoro-4-[2-[[(1R)-2-hydroxy-1-methyl-ethyl]amino]-2-oxo-acetyl]-1-methyl-pyrrole-2-carboxamide]	65	> 25000
CCCC[C@@H](CO)NC(=O)C(=O)c1cc(C(=O)Nc2ccc(F)c(C#N)c2)n(C)c1C [Compound 63, N-(3-cyano-4-fluoro-phenyl)-4-[2-[[(1S)-1-(hydroxymethyl)pentyl]amino]-2-oxo-acetyl]-1,5-dimethyl-pyrrole-2-carboxamide]	210	> 25000
Cc1c(C(=O)C(=O)NC2(CO)CC2)cc(C(=O)Nc2ccc(F)c(C#N)c2)n1C [Compound 73, N-(3-cyano-4-fluoro-phenyl)-4-[2-[[1-(hydroxymethyl)cyclopropyl]amino]-2-oxo-acetyl]-1,5-dimethyl-pyrrole-2-carboxamide]	17	> 25000
Cn1cc(C(=O)C(=O)NC2(C(F)(F)F)CCOC2)c(F)c1C(=O)Nc1ccc(F)c(C#N)c1 (stereo not shown) [Compound 83, N-(3-cyano-4-fluoro-phenyl)-3-fluoro-1-methyl-4-[2-oxo-2-[[3-(trifluoro-methyl)tetrahydrofuran-3-yl]amino]acetyl]pyrrole-2-carboxamide]	6	11800
Cc1c(C(=O)C(=O)NC2(C)COC2)c(Cl)c(C(=O)Nc2ccc(F)c(C#N)c2)n1C [Compound 44, 3-chloro-N-(3-cyano-4-fluoro-phenyl)-1,5-dimethyl-4-[2-[(3-methyloxetan-3-yl)amino]-2-oxo-acetyl]pyrrole-2-carboxamide]	3	> 25000
CC[C@@H](NC(=O)C(=O)c1c(Cl)c(C(=O)Nc2ccc(F)c(C#N)c2)n(C)c1C)C(F)(F)F [Compound 42, 3-chloro-N-(3-cyano-4-fluoro-phenyl)-1,5-dimethyl-4-[2-oxo-2-[[(1R)-1-(trifluoromethyl)propyl]amino]acetyl]pyrrole-2-carboxamide]	2	> 25000
Cn1cc(C(=O)C(=O)NC2(C(F)(F)F)CCC2)c(F)c1C(=O)Nc1ccc(F)c(C#N)c1 [Compound 84, N-(3-cyano-4-fluoro-phenyl)-3-fluoro-1-methyl-4-[2-oxo-2-[[1-(trifluoro-methyl)cyclobutyl]amino]acetyl]pyrrole-2-carboxamide]	3	21900
C[C@@H](NC(=O)C(=O)c1cc(C(=O)Nc2ccc(F)c(C#N)c2)n(C)c1Br)C(F)(F)F [Compound 25, 5-bromo-N-(3-cyano-4-fluoro-phenyl)-1-methyl-4-[2-oxo-2-[[(1R)-2,2,2-trifluoro-1-methyl-ethyl]amino]acetyl]pyrrole-2-carboxamide]	> 1000	> 25000
Cc1c(C(=O)C(=O)N[C@H](C)C(C)(F)F)c(Cl)c(C(=O)Nc2ccc(F)c(C#N)c2)n1C [Compound 46, 3-chloro-N-(3-cyano-4-fluoro-phenyl)-4-[2-[[(1R)-2,2-difluoro-1-methyl-propyl]amino]-2-oxo-acetyl]-1,5-dimethyl-pyrrole-2-carboxamide]	3	> 25000
